Assay [1] relates to Staphylococcus aureus. Kind of assay: Antibacterial activity against […] Staphylococcus aureus ATCC25923 assessed as inhibition in bacterial growth incubated for 18 hrs by microdilution method. Type of assay: functional. (Dilution methods test growth across graded concentrations, often in twofold steps.)
For assay [2], the target named is T1, L-2,3-diaminopropanoate--citrate ligase (Staphylococcus aureus (strain NCTC 8325 / PS 47), UniProt Q2G1M9).
T1 sequence (Q2G1M9 whole entry): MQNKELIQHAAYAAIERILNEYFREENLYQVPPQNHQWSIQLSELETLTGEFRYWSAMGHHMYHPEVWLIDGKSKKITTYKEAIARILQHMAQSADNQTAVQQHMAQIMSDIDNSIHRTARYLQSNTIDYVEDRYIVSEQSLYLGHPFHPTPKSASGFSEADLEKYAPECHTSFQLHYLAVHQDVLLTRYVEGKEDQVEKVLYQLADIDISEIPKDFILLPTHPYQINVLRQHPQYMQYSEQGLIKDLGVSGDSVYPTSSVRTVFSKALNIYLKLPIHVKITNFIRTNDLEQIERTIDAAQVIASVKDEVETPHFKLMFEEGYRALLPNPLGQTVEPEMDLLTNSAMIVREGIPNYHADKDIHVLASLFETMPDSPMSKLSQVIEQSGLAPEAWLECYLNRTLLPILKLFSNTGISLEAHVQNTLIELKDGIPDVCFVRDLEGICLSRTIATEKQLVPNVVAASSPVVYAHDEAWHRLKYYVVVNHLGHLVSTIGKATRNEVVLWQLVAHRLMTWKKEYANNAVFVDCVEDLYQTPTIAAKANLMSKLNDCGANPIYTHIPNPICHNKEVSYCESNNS
Kind of assay: Inhibition of Staphylococcus aureus SbnE incubated for 1 hr by malachite green staining based microplate reader analysis.

For assay [3], the target named is T2, L-2,3-diaminopropanoate--citrate ligase (Staphylococcus aureus (strain NCTC 8325 / PS 47)) (UniProt Q2G1M9).
T2 sequence (whole entry): T1 sequence (Q2G1M9 whole entry)
Kind of assay: Inhibition of Staphylococcus aureus SbnE at 50 uM incubated for 1 hr by malachite green staining based microplate reader analysis relative to control.

The subject of assay [4] is Staphylococcus aureus. The assay is described as follows: Antibacterial activity against methicillin resistance Staphylococcus aureus CCARM3167 assessed as inhibition of siderophore production at 1/4 times MIC incubated for 18 hrs by CAS liquid assay. The assay is classed as functional, organism-based.
The subject of assay [5] is Staphylococcus aureus. The assay is described as follows: Antibacterial activity against Staphylococcus aureus ATCC25923 assessed as inhibition of siderophore production at 1/2 times MIC incubated for 18 hrs by CAS liquid assay. The assay is classed as functional, organism-based.
In assay [6] the test system is Staphylococcus aureus. Kind of assay: Antibacterial activity against methicillin resistant Staphylococcus aureus CCARM3167 assessed as inhibition in bacterial growth incubated for 18 hrs by microdilution method. The assay is classed as functional.
The subject of the next assay is Bacillus cereus. The assay is described as follows: Antibacterial activity against Bacillus cereus ATCC27348 assessed as inhibition of bacterial growth incubated for 18 hrs by microdilution method. The assay is classed as functional.
The next assay deals with Escherichia coli. The assay is described as follows: Antibacterial activity against Escherichia coli MC1061 assessed as inhibition of bacterial growth incubated for 18 hrs by microdilution method. The assay is classed as functional.
Assay [7] relates to Staphylococcus aureus. The assay is described as follows: Antibacterial activity against methicillin resistance Staphylococcus aureus assessed as reduction in biofilm formation at 1/2 times MIC incubated 24 hrs by crystal violet staining based microplate reader analysis. The assay is classed as functional, organism-based.
Assay [8] can be described thus: Antibacterial activity against Bacillus subtilis ATCC6633 assessed as inhibition of bacterial growth incubated for 18 hrs by microdilution method. Type of assay: functional, Bacillus subtilis […].
For assay [9], the system named is Staphylococcus aureus. Kind of assay: Antibacterial activity against quinolone-resistant Staphylococcus aureus CCARM3505 assessed as inhibition of bacterial growth incubated for 18 hrs by microdilution method. Type of assay: functional.
Another assay concerns Salmonella typhimurium. Kind of assay: Antibacterial activity against Salmonella typhimurium ATCC14028 assessed as inhibition of bacterial growth incubated for 18 hrs by microdilution method. The assay is classed as functional, Salmonella enterica subsp. enterica serovar Typhimurium. Conditions: Salmonella enterica.
The next assay deals with Cell membrane. Kind of assay: Induction of membrane disruption in methicillin resistant Staphylococcus aureus CCARM3167 at MIC incubated for 30 mins PI staining based Flow cytometry. Background: In flow cytometry, cells or beads pass a laser one at a time.

Usually MIC stands for the lowest concentration that inhibits growth of the organism. The IC50 is the concentration that inhibits the measured activity by half. What is called inhibition is the percentage by which the read-out fell short of the control. A lower inhibition goes with little suppression.

Structures are written as SMILES. Converted amounts (≈) assume the structure as drawn. The source made the active and inactive calls. No cut-off for these calls is given here.

Take `CC(C)C[C@H]([C@H](O)CCNCc1ccccc1)[C@@H](O)c1cc(O)cc(O)c1`: the MIC in the assay with Staphylococcus aureus [1] and in the assay on Staphylococcus aureus [6] was over 256 µg/mL throughout. Further, the IC50 in [2] is 3.45 µM. This compound also registered an inhibition in assay [3] of 97.1%. The outcome with Staphylococcus aureus [4] and with Staphylococcus aureus [5] was inactive.
In the case of `CC(C)C[C@@H]([C@H](O)C[C@H](O)CCCCCCCCNCc1ccccc1)[C@@H](O)c1cc(O)cc(O)c1`, the MIC in the assay with Staphylococcus aureus [1] was found to be 2 µg/mL (≈ 3.99 µM); with Bacillus cereus, 1 µg/mL (≈ 1.99 µM); in the assay on Escherichia coli it was 0.25 µg/mL (≈ 0.498 µM); in assay [8], 4 µg/mL (≈ 7.97 µM); in the assay on Staphylococcus aureus [9] it was 0.5 µg/mL (≈ 0.997 µM); with Salmonella typhimurium, 4 µg/mL (≈ 7.97 µM). In addition, the MIC in the assay with Staphylococcus aureus [6] amounted to 0.5 µg/mL (≈ 0.997 µM). In [2], this compound came in with an IC50 of 41.1 µM. This compound yielded an inhibition in [3] of 57.9%. The outcome in the assay with Staphylococcus aureus [4] and in the assay with Staphylococcus aureus [5] was inactive. For the same compound, the outcome with Staphylococcus aureus [7] and with Cell membrane was Active.

These data come from ChEMBL document CHEMBL5625182, “Synthesis and antibacterial activities of baulamycin A inspired derivatives” (Eur J Med Chem, 2023).
